{"source": "ChEMBL document CHEMBL1128152", "about": "“Active-site conformation of 17-(3-pyridyl)androsta-5,16-dien-3-ol, a potent inhibitor of the P450 enzyme C17-hydroxylase/C17-20 lyase” (Bioorg Med Chem Lett, 1995)", "target": "T1, Steroid 17-alpha-hydroxylase/17,20 lyase (Homo sapiens, UniProt P05093)", "T1 sequence (P05093 whole entry)": "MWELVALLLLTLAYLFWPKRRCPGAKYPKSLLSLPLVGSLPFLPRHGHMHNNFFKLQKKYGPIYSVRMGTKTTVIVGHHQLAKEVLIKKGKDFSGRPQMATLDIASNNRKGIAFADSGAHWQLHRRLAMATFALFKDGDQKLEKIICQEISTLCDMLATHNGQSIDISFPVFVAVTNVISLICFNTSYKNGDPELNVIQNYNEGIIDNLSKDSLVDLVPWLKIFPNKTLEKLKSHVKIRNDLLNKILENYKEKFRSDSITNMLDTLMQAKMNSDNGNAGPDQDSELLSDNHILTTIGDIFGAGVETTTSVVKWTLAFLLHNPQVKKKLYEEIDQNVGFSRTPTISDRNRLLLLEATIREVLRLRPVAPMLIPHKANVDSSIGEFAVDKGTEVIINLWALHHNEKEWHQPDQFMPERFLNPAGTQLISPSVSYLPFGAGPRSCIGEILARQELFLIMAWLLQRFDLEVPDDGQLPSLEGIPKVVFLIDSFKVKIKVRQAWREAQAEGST", "assay": "Inhibition of human Steroid 17-alpha-hydroxylase/17,20 lyase", "data": [{"smiles": "C[C@]12CC[C@H](O)CC1=CC[C@@H]1[C@@H]2CC[C@]2(C)C(c3cccnc3)=CC[C@@H]12", "note": "[ABIRATERONE]", "values": [{"measurement": "IC50", "value": "~1", "unit": "nM"}]}]}
